The source of these data is ChEMBL document CHEMBL1201862, “PubChem BioAssay data set” (2004).

Among the test systems are MDA-MB-231; M14; SK-MEL-28; PC-3; 786-0; OVCAR-4; HOP-92; U-251; HCC 2998; NCI-H460; Malme-3M; SNB-75; HT-29; A498; NCI/ADR-RES; SR; HOP-62; SF-268; K562; NCI-H522.
Holding throughout (test): NCI tumour cell line growth inhibition, 48 h

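Dose response: 5 concentrations. Exposure: 48 h. Format: 96-well plates. Endpoint: linear interpolation; highest concentration if not reached. Abbreviation: GI50, concentration required for 50% inhibition of growth.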 Calls of active or inactive are those of the source. Cut-off read from the data, not from the text of the source: active = GI50 up to about 1.1 µM and inactive = higher.

Turning to `COC(=O)C1(C)OC(C)=NC1(C(=O)OC)C(=O)OC` (stereo not given), the GI50 in the test with MDA-MB-231, in the test with M14, in the test with SK-MEL-28, in the test with PC-3, with 786-0 and in the test with OVCAR-4 was > 100 µM (inactive) in each case. The GI50 is 1.45 µM (inactive) with HOP-92; > 100 µM (inactive) with U-251; > 100 µM (inactive) in the test with HCC 2998; > 100 µM (inactive) in the test with NCI-H460; > 100 µM (inactive) with Malme-3M; > 100 µM (inactive) with SNB-75. Moreover, the GI50 with HT-29, with A498, in the test with NCI/ADR-RES, in the test on SR, in the test with HOP-62 and in the test on SF-268 was > 100 µM (inactive) throughout. For the same compound, the GI50 in the test on K562 was > 100 µM (inactive).
Consider `CC1CCCN1CCCOC(=O)c1ccc(OC2C=CCCC2)cc1` (stereo not given), for which the GI50 in the test on MDA-MB-231 is 18.1 µM (inactive); in the test with M14, 16.2 µM (inactive); with SK-MEL-28 it was 54.7 µM (inactive); in the test on PC-3, 22.4 µM (inactive); in the test with 786-0, 22.3 µM (inactive); with OVCAR-4, 50 µM (inactive). Moreover, the GI50 was 37.6 µM (inactive) with U-251; 28.6 µM (inactive) in the test on HCC 2998; 17.1 µM (inactive) with NCI-H460; 18.9 µM (inactive) with Malme-3M; 7.74 µM (inactive) in the test on SNB-75; 17.7 µM (inactive) in the test with HT-29. For the same compound, the GI50 with A498 is 67.1 µM (inactive); in the test on NCI/ADR-RES, 48.3 µM (inactive); in the test with SR, 28.1 µM (inactive); in the test on HOP-62 it was 20.1 µM (inactive); with NCI-H522, 20.9 µM (inactive); with SF-268, 37.8 µM (inactive). The GI50 in the test on K562 was 18.9 µM (inactive).
Turning to `CC(=O)/C(=C/N1CCNC1=S)C(=O)Nc1ccccc1C`, the GI50 with MDA-MB-231, in the test with M14, in the test on SK-MEL-28, in the test with PC-3, in the test with 786-0 and in the test with OVCAR-4 was > 100 µM (inactive) throughout. For the same compound, the GI50 in the test with HOP-92, with U-251, in the test on HCC 2998, with NCI-H460, with SNB-75 and in the test on HT-29 was > 100 µM (inactive) in each case. Also, the GI50 was > 100 µM (inactive) in the test on A498; > 100 µM (inactive) in the test with NCI/ADR-RES; 83 µM (inactive) in the test on SR; > 100 µM (inactive) with HOP-62; > 100 µM (inactive) in the test on NCI-H522; > 100 µM (inactive) in the test with SF-268. In addition, the GI50 in the test on K562 is > 100 µM (inactive).
Regarding `CC(=C(C(N)=O)C(N)=O)C1C=C(c2cccs2)CC(c2ccc(Cl)cc2)=C1O` (stereo not given), the GI50 in the test on MDA-MB-231 was > 100 µM (inactive); in the test on M14, 42.5 µM (inactive); in the test with SK-MEL-28, > 100 µM (inactive); with PC-3, 9.55 µM (inactive); with 786-0, 36.7 µM (inactive); in the test with OVCAR-4 it was 5.51 µM (inactive). For the same compound, the GI50 was 85.9 µM (inactive) in the test on HOP-92; 35.6 µM (inactive) in the test with U-251; 34 µM (inactive) in the test on HCC 2998; 69 µM (inactive) in the test with NCI-H460; 90.6 µM (inactive) in the test on SNB-75; 39.8 µM (inactive) in the test on HT-29. Moreover, the GI50 in the test with A498 is 21.5 µM (inactive); with NCI/ADR-RES, 44.9 µM (inactive); in the test with SR it was 31 µM (inactive); in the test with HOP-62, > 100 µM (inactive); in the test with NCI-H522 it was 30.3 µM (inactive); in the test on SF-268 it was > 100 µM (inactive). Moreover, in the test with K562, the GI50 is 25 µM (inactive).
For the compound `CO[C@@]12C[C@@H](C)C3=CCC(C)=C3CC1=C(C)C(=O)O2`, the GI50 was > 100 µM (inactive) in the test on MDA-MB-231; > 100 µM (inactive) in the test on M14; > 100 µM (inactive) with SK-MEL-28; 85.7 µM (inactive) with PC-3; > 100 µM (inactive) in the test on 786-0; > 100 µM (inactive) in the test with OVCAR-4. Also, the GI50 in the test on HOP-92 is > 100 µM (inactive); in the test with U-251, > 100 µM (inactive); in the test with HCC 2998 it was > 100 µM (inactive); in the test on NCI-H460, > 100 µM (inactive); with Malme-3M, > 100 µM (inactive); with SNB-75 it was 63.4 µM (inactive). The GI50 is > 100 µM (inactive) in the test with HT-29; > 100 µM (inactive) in the test with A498; > 100 µM (inactive) in the test on NCI/ADR-RES; 44.2 µM (inactive) in the test on SR; > 100 µM (inactive) with SF-268; 53.3 µM (inactive) with K562.
As to `CC1(C)CCCOc2cccc(c2)OCCCC(C)(C)C1=O`, the GI50 is 44.1 µM (inactive) in the test on MDA-MB-231; 33.9 µM (inactive) in the test on M14; 38.5 µM (inactive) in the test with SK-MEL-28; 14.8 µM (inactive) in the test with PC-3; 41.5 µM (inactive) in the test with 786-0; 27.5 µM (inactive) with OVCAR-4. In addition, the GI50 in the test with HOP-92 is 23 µM (inactive); in the test with U-251, 35.2 µM (inactive); with NCI-H460, 25.1 µM (inactive); in the test with Malme-3M, 27.6 µM (inactive); in the test with SNB-75, 30.8 µM (inactive); with HT-29 it was 19.8 µM (inactive). In addition, the GI50 with A498 was 66.2 µM (inactive); with NCI/ADR-RES, 38.3 µM (inactive); in the test with SR it was 34 µM (inactive); with HOP-62 it was 30.6 µM (inactive); in the test on NCI-H522 it was 13.3 µM (inactive); in the test on SF-268, 54.8 µM (inactive). The GI50 in the test on K562 was 14.8 µM (inactive).
For `CCN1CCCCCCCCCC(=N/O)/C(=N\O)C1`, the GI50 in the test with MDA-MB-231, with M14, in the test on SK-MEL-28, with PC-3, in the test on 786-0 and in the test with HOP-92 was > 100 µM (inactive) throughout. Moreover, the GI50 in the test with U-251, in the test on NCI-H460, in the test on Malme-3M, with SNB-75, in the test on HT-29 and in the test on A498 was > 100 µM (inactive) each time. In addition, the GI50 with NCI/ADR-RES, in the test on SR, in the test on HOP-62, in the test with NCI-H522, with SF-268 and with K562 was > 100 µM (inactive) each time.
In the case of `NC(=O)C(=O)c1ncn(Cc2ccccc2)c1N`, the GI50 in the test on MDA-MB-231, in the test on M14, in the test on SK-MEL-28, with PC-3, in the test with 786-0 and in the test on OVCAR-4 was > 100 µM (inactive) each time. Moreover, the GI50 in the test with U-251, in the test with HCC 2998, in the test with NCI-H460, in the test with Malme-3M, with SNB-75 and in the test with HT-29 was > 100 µM (inactive) each time. Besides, the GI50 with A498, in the test with NCI/ADR-RES, in the test on SR, in the test on HOP-62, with NCI-H522 and in the test with SF-268 was > 100 µM (inactive) each time. For the same compound, the GI50 with K562 was > 100 µM (inactive).
As for `OC1=C(c2ccccc2)C2=NCCN2c2ccccc21`, the GI50 was > 100 µM (inactive) in the test on MDA-MB-231; 57.8 µM (inactive) in the test on M14; 79.6 µM (inactive) with SK-MEL-28; 38.1 µM (inactive) with PC-3; 42.5 µM (inactive) in the test on 786-0; > 100 µM (inactive) in the test with OVCAR-4. Also, the GI50 in the test on HOP-92 was > 100 µM (inactive); in the test on U-251, 73.5 µM (inactive); in the test with HCC 2998, 41.1 µM (inactive); in the test with NCI-H460, 49.9 µM (inactive); in the test with SNB-75, 23.1 µM (inactive); in the test with HT-29 it was 55.2 µM (inactive). Moreover, the GI50 is 98.4 µM (inactive) with A498; 52.6 µM (inactive) in the test with NCI/ADR-RES; 87.3 µM (inactive) with SR; 31.8 µM (inactive) with HOP-62; 45.9 µM (inactive) in the test on SF-268; 21.8 µM (inactive) with K562.
As to `C=C(CC[C@@H](C)[C@H]1CC[C@@]2(C)C3=C(CC[C@]12C)[C@@]1(C)CC[C@H](O)[C@@H](C)C1CC3)C(C)C` (stereo not given in full), the GI50 with MDA-MB-231 was 1.5 µM (inactive); in the test on M14, 1.17 µM (inactive); in the test on SK-MEL-28, 1.28 µM (inactive); in the test on PC-3, 1.07 µM (active); in the test with 786-0 it was 0.984 µM (active); in the test with OVCAR-4 it was 1.6 µM (inactive). The GI50 in the test with HOP-92 was 1.18 µM (inactive); in the test with U-251, 1.39 µM (inactive); in the test on HCC 2998, 1.53 µM (inactive); in the test on NCI-H460 it was 0.679 µM (active); in the test with Malme-3M it was 1.29 µM (inactive); in the test on SNB-75 it was 1.25 µM (inactive). Also, the GI50 in the test on HT-29 is 0.48 µM (active); with A498, 1.41 µM (inactive); in the test with NCI/ADR-RES, 1.4 µM (inactive); in the test on SR it was 1.01 µM (active); in the test on HOP-62 it was 0.879 µM (active); in the test on K562, 0.273 µM (active).
Consider `COc1ccc(C(=O)Oc2c(C#N)sc3c2c(=O)n(-c2ccccc2)c(=S)n3-c2ccccc2)cc1`, for which the GI50 was 31.3 µM (inactive) in the test with MDA-MB-231; 20.3 µM (inactive) with M14; 53.6 µM (inactive) with SK-MEL-28; 26.5 µM (inactive) with PC-3; 44.1 µM (inactive) with 786-0; 28.1 µM (inactive) in the test with OVCAR-4. The GI50 in the test with HOP-92 was 23.6 µM (inactive); in the test with U-251, 25.8 µM (inactive); in the test on HCC 2998, 27.9 µM (inactive); in the test with NCI-H460, 30.5 µM (inactive); in the test with SNB-75, > 100 µM (inactive); with HT-29 it was 22.2 µM (inactive). Besides, the GI50 is 16.4 µM (inactive) in the test with A498; 20.6 µM (inactive) in the test on NCI/ADR-RES; < 0.01 µM (active) in the test on SR; 24.7 µM (inactive) in the test with HOP-62; 0.131 µM (active) in the test on NCI-H522; 34.2 µM (inactive) in the test with SF-268. Moreover, the GI50 in the test on K562 was 30.3 µM (inactive).
